We go through 1 compound from patent US6573300B2, “Hydroxyurea treatment for spinal muscular atrophy” (China Medical College Hospital, priority 2001, dated 2003).

Molecules are shown by their SMILES. Where only a bound is given, the exact number is not on record here.

Data set [1] has as its system exon 7-containing SMN protein. Put plainly: Western-blot analysis (H2 and H7 antibodies) of SMN protein in SMA lymphoid cell lines. The format is cell-based, human. An excerpt:
Western-blot analysis. Rabbits were immunized with synthetic peptides containing either human SMN amino acids 279-288 from exon 7 or amino acids 72-84 from exon 2. Specific antibodies (H7 and H2 respectively) were purified from rabbit crude sera with an EAH-sepharose 4B column (Pharmacia) according to the manufacturer's instructions.
Protein samples, prepared from treated and untreated SMA lymphoid cells, were loaded on a 5% polyacrylamide stacking gel above a 12% separating gel, and the gel was run with a discontinuous buffer using Laemmli's method. After electrophoresis, proteins were transferred electrophoretically to polyvinyl difluoride membranes (Millipore Corp., Marlborough, Mass., USA). After the transfer, the membranes were blocked in TBST (50 mM Tris.HCl, pH 7.5, 150 mM NaCl, 0.05% Tween 20) containing 4% BSA (bovine serum albumin) for 2 hours at room temperature. Blots were incubated with a 1:800 dilution of anti-SMN exon 2 (H2) or anti-SMN exon 7 (H7) antibody in TBST for 2 hours at room temperature. […] The secondary antibody was detected with a 1.5% solution of 5-bromo-4-chloro-3-indoyl phosphate and 3% nitro blue tetrazolium in a developing buffer (100 mM NaCl, 5 mM MgCl2, 100 mM Tris.HCl, pH 9.5).

In the next data set the test system is human SMA patients. Put plainly: Treatment of human SMA patients, oral. The format is in vivo.
For data set [2] the following is noted: absorbed from the gastrointestinal tract; cited from earlier work.
The test system of a further data set is SMA-like mice. Put plainly: Treatment of types 2 and 3 SMA-like mice (hSMN2 Smn-/-) via drinking water. The format is in vivo, mouse. The protocol: To generate hSMN2 Smn^−/− mice, hSMN2 Smn^+/− mice were crossed to Smn^+/− mice. Progeny lacking the murine SMN locus were identified by genotyping. The presence of the hSMN2 transgene was also confirmed.
The effect of hydroxyurea on the symptoms of SMA-like mice were investigated. Hydroxyurea was administered to ten SMA-like mice with type 2 symptoms and ten SMA-like mice with type 3 symptoms. These mice were identified at birth by genotype and phenotype. Hydroxyurea was administered to the SMA-like mice as 1 mg/ml to 2 mg/ml solution available ad libitum in their drinking water. The amount of hydroxyurea taken by SMA-like mice was estimated to be approximate 5-10 mg/day. The survival time of hydroxyurea-treated type 2 SMA-like mice was longer, about 4 to 5 days longer on average, than untreated mice.
The effect of hydroxyurea administration on the tail phenotype of SMA-like mice was also monitored. The tails of untreated types 2 and 3 SMA-like mice have decreased diameter of muscle fibers, atrophy of muscle bundles, group atrophy and subcutaneous edema (Hsieh-Li et al. (2000) supra).

For `NC(=O)NO` [hydroxyurea], the “intact SMN protein in cytosolic and nuclear fractions” value in data set [1] (after 3 hours stimulation with 5 ng/ml to 500 μg/ml) is recorded as “increase”. Besides, in data set [1] (lymphoid cell lines from different types of SMA patients, varying amounts, vs untreated controls), the “levels of exon 7-containing SMN protein” value is “increase”. For the same compound, the “full-length SMN mRNA transcript in peripheral mononuclear cells” value with human SMA patients (SMA patients with SMN1 deletion, oral 15 to 25 mg/kg/day) is “elevated”. In addition, the walking gait entry with human SMA patients (one type II patient, improved to a type III phenotype) is recorded as “improved”. Moreover, the “clinical symptoms of all three patients” value with human SMA patients (oral 15 to 25 mg/kg/day) is on record as “improved”. Also, the muscle strength result with human SMA patients (other type II patient) is recorded as “improved muscle strength”. The respirator dependence result with human SMA patients (type I patient, on respirator before treatment) was “respirator free”. Moreover, in data set [2], the “time to enter the serum after ingestion” value is no more than 2 h. In addition, the tail phenotype entry in the data set on SMA-like mice (most of types 2 and 3 SMA-like mice, after treatment) was “nearly normal phenotype”. In addition, the “frequency of chronic necrosis originating at the tip of the tail” value in the data set on SMA-like mice (treated SMA-like mice, 50% for untreated) is listed as 2%. Also, in the data set with SMA-like mice (western blot and immunohistochemical studies, treated SMA-like mice), the “exon 7-containing SMN protein levels in multiple tissues, including spinal cord motor neurons” value is “elevated”.
